Marks after values point to notes of the source that are not given here. No end group written: not given here.
Test: Example 4 stability of concentrated solutions: HPLC-UV Assay/RS (method 78917)
Assay type: physicochemical
Settings: for HPLC-UV Assay / Related Substances Purity / Related Substances Total Impurities: 81.4 mg/mL solution
Method: The peptide formulation of SEQ ID NO: 1 dissolved in a saline solution with a pH of 5.0±0.1 was tested for stability under either −20° C. or 40° C. with 75% relative humidity (RH). […]

[1] = 36.7 mg/mL solution, −20° C., 1 Month
[2] = 36.7 mg/mL solution, −20° C., 2 Month
[3] = 36.7 mg/mL solution, −20° C., 3 Month
[4] = 36.7 mg/mL solution, −20° C., 6 Month
[5] = 36.7 mg/mL solution, −20° C., 9 Month
[6] = 72.4 mg/mL solution, 40° C. and 75% RH, 1 Month
[7] = 72.4 mg/mL solution, 40° C. and 75% RH, 2 Month
[8] = 72.4 mg/mL solution, 40° C. and 75% RH, 3 Month
[9] = 72.4 mg/mL solution, 40° C. and 75% RH, 6 Month
[10] = 72.4 mg/mL solution, −20° C., 0 Month
[11] = 72.4 mg/mL solution, −20° C., 1 Month
[12] = 72.4 mg/mL solution, −20° C., 2 Month
[13] = 72.4 mg/mL solution, −20° C., 3 Month
[14] = 72.4 mg/mL solution, −20° C., 6 Month
[15] = 72.4 mg/mL solution, −20° C., 9 Month

Question: For “RRWVRRVRRVWRRVVRVVRRWVRR-NH2 [SEQ ID NO: 1]”, which “SEQ ID NO: 1 % area (Inj-1)” value [1] is on record?
Answer: 99.13%

Question: What about the “SEQ ID NO: 1 % area (Inj-2)” value [1] of the same substance?
Answer: 99.12%

Question: What about the “SEQ ID NO: 1 Mean % Area” value [1] of the same substance?
Answer: 99.1%

Question: What about the “HPLC-UV Assay/RS % Assay” value [2] of the same substance?
Answer: 103.2%

Question: And the “HPLC-UV Assay/RS % Purity” value [2]?
Answer: 99%

Question: And the “HPLC-UV Assay/RS % Total Impurities” value [2]?
Answer: 0.9%

Question: What about the “HPLC-UV Assay/RS Impurities RRT/%, RRT 1.02” value [2] of the same substance?
Answer: 1.02/0.9%

Question: What about the “HPLC-UV Assay/RS % Assay” value [3] of the same substance?
Answer: 101.7%

Question: And the “HPLC-UV Assay/RS % Purity” value [3]?
Answer: 99%

Question: What about the “HPLC-UV Assay/RS % Total Impurities” value [3] of the same substance?
Answer: 0.9%

Question: What about the “HPLC-UV Assay/RS Impurities RRT/%, RRT 1.02” value [3] of the same substance?
Answer: 1.02/0.9%

Question: What about the “HPLC-UV Assay/RS % Assay” value [4] of the same substance?
Answer: 99.8%

Question: What about the “HPLC-UV Assay/RS % Purity” value [4] of the same substance?
Answer: 99%

Question: What about the “HPLC-UV Assay/RS % Total Impurities” value [4] of the same substance?
Answer: 0.9%

Question: What about the “HPLC-UV Assay/RS Impurities RRT/%, RRT 1.02” value [4] of the same substance?
Answer: 1.02/0.9%

Question: What about the “HPLC-UV Assay/RS % Assay” value [5] of the same substance?
Answer: 96.9%

Question: What about the “HPLC-UV Assay/RS % Purity” value [5] of the same substance?
Answer: 100%

Question: And the “HPLC-UV Assay/RS % Total Impurities” value [5]?
Answer: 0.3%

Question: And the “HPLC-UV Assay/RS Impurities RRT/%, RRT 1.01” value [5]?
Answer: 1.01/0.3%

Question: What about the “% Purity” value [6] of the same substance?
Answer: 99%

Question: And the “% Total Impurities” value [6]?
Answer: 1.1%

Question: And the “HPLC-UV % Assay” value [6]?
Answer: 95.9%

Question: And the “RRT 1.02 impurity % area (Inj-1)” value [6]?
Answer: 0.92 % area

Question: What about the “RRT 1.02 impurity % area (Inj-2)” value [6] of the same substance?
Answer: 0.90 % area

Question: And the “RRT 1.02 impurity Mean % Area” value [6]?
Answer: 0.9 % Area

Question: What about the “RRT 1.32 impurity % area (Inj-1)” value [6] of the same substance?
Answer: 0.17 % area

Question: What about the “RRT 1.32 impurity % area (Inj-2)” value [6] of the same substance?
Answer: 0.18 % area

Question: And the “RRT 1.32 impurity Mean % Area” value [6]?
Answer: 0.2 % Area

Question: And the “SEQ ID NO: 1 peak % area (Inj-1)” value [6]?
Answer: 98.91 % area

Question: What about the “SEQ ID NO: 1 peak % area (Inj-2)” value [6] of the same substance?
Answer: 98.92 % area

Question: And the “SEQ ID NO: 1 peak Mean % Area” value [6]?
Answer: 98.9 % Area

Question: And the “% Purity” value [7]?
Answer: 99%

Question: And the “% Total Impurities” value [7]?
Answer: 1.5%

Question: And the “HPLC-UV % Assay” value [7]?
Answer: 98.4%

Question: What about the “% Purity” value [8] of the same substance?
Answer: 98%

Question: And the “% Total Impurities” value [8]?
Answer: 1.8%

Question: And the “HPLC-UV % Assay” value [8]?
Answer: 90.5%

Question: And the “% Purity” value [9]?
Answer: 96%

Question: And the “% Total Impurities” value [9]?
Answer: 3.6%

Question: What about the “HPLC-UV % Assay” value [9] of the same substance?
Answer: 87.0* %

Question: What about the “% Puritvy” value [10] of the same substance?
Answer: 99.1%

Question: What about the “% Total Impurities” value [10] of the same substance?
Answer: 1.0%

Question: What about the “HPLC-UV % Assay” value [10] of the same substance?
Answer: 94.2%

Question: What about the “RRT 1.02 impurity % area (Inj-1)” value [10] of the same substance?
Answer: 0.97 % area

Question: And the “RRT 1.02 impurity % area (Inj-2)” value [10]?
Answer: 0.93 % area

Question: And the “RRT 1.02 impurity Mean % Area” value [10]?
Answer: 1.0 % Area

Question: What about the “SEQ ID NO: 1 peak % area (Inj-1)” value [10] of the same substance?
Answer: 99.03 % area

Question: What about the “SEQ ID NO: 1 peak % area (Inj-2)” value [10] of the same substance?
Answer: 99.07 % area

Question: And the “SEQ ID NO: 1 peak Mean % Area” value [10]?
Answer: 99.1 % Area

Question: What about the “% Puritvy” value [11] of the same substance?
Answer: 99%

Question: And the “HPLC-UV % Assay” value [11]?
Answer: 97.7%

Question: And the “RRT 1.02 impurity % area (Inj-1)” value [11]?
Answer: 0.88 % area

Question: And the “RRT 1.02 impurity % area (Inj-2)” value [11]?
Answer: 0.87 % area

Question: And the “RRT 1.02 impurity Mean % Area” value [11]?
Answer: 0.9 % Area

Question: And the “SEQ ID NO: 1 peak % area (Inj-1)” value [11]?
Answer: 99.12 % area

Question: What about the “SEQ ID NO: 1 peak % area (Inj-2)” value [11] of the same substance?
Answer: 99.13 % area

Question: And the “SEQ ID NO: 1 peak Mean % Area” value [11]?
Answer: 99.1 % Area

Question: And the “Total % Impurities” value [11]?
Answer: 0.9%

Question: And the “% Purity” value [12]?
Answer: 99%

Question: What about the “% Total Impurities” value [12] of the same substance?
Answer: 0.9%

Question: What about the “HPLC-UV % Assay” value [12] of the same substance?
Answer: 101.1%

Question: What about the “% Purity” value [13] of the same substance?
Answer: 99%

Question: What about the “% Total Impurities” value [13] of the same substance?
Answer: 1.0%

Question: What about the “HPLC-UV % Assay” value [13] of the same substance?
Answer: 97.4%

Question: What about the “% Purity” value [14] of the same substance?
Answer: 99%

Question: And the “% Total Impurities” value [14]?
Answer: 0.9%

Question: And the “HPLC-UV % Assay” value [14]?
Answer: 95.1%

Question: And the “% Purity” value [15]?
Answer: 100%

Question: And the “% Total Impurities” value [15]?
Answer: 0.5%

Question: And the “HPLC-UV % Assay” value [15]?
Answer: 95.9%

Question: And the “HPLC-UV Assay” value (40° C. and 75% RH, 1 Month)?
Answer: 102.5 % LC

Question: And the “Related Substances Purity” value (40° C. and 75% RH, 1 Month)?
Answer: 98%

Question: What about the “Related Substances Total Impurities” value (40° C. and 75% RH, 1 Month) of the same substance?
Answer: 1.7%

Question: And the “HPLC-UV Assay” value (40° C. and 75% RH, 2 Month)?
Answer: 102.6 % LC

Question: What about the “Related Substances Purity” value (40° C. and 75% RH, 2 Month) of the same substance?
Answer: 98%

Question: And the “Related Substances Total Impurities” value (40° C. and 75% RH, 2 Month)?
Answer: 2.4%

Question: And the “HPLC-UV Assay” value (40° C. and 75% RH, 3 Month)?
Answer: 92.0♦ % LC

Question: What about the “Related Substances Purity” value (40° C. and 75% RH, 3 Month) of the same substance?
Answer: 97%

Question: And the “Related Substances Total Impurities” value (40° C. and 75% RH, 3 Month)?
Answer: 2.6%

Question: And the “HPLC-UV Assay” value (−20° C., 0 Month)?
Answer: 108.6 % LC

Question: What about the “Related Substances Purity” value (−20° C., 0 Month) of the same substance?
Answer: 99%

Question: What about the “Related Substances Total Impurities” value (−20° C., 0 Month) of the same substance?
Answer: 0.9%

Question: And the “HPLC-UV Assay” value (−20° C., 1 Month)?
Answer: 103.8 % LC

Question: What about the “Related Substances Purity” value (−20° C., 1 Month) of the same substance?
Answer: 99%

Question: And the “Related Substances Total Impurities” value (−20° C., 1 Month)?
Answer: 1.0%

Question: And the “HPLC-UV Assay” value (−20° C., 2 Month)?
Answer: 107.8 % LC

Question: What about the “Related Substances Purity” value (−20° C., 2 Month) of the same substance?
Answer: 99%

Question: What about the “Related Substances Total Impurities” value (−20° C., 2 Month) of the same substance?
Answer: 0.9%

Question: What about the “HPLC-UV Assay” value (−20° C., 3 Month) of the same substance?
Answer: 104.7 % LC

Question: What about the “Related Substances Purity” value (−20° C., 3 Month) of the same substance?
Answer: 100%

Question: And the “Related Substances Total Impurities” value (−20° C., 3 Month)?
Answer: 0.3%

— patent publication US20230106943A1, “ENGINEERED ANTIMICROBIAL PEPTIDES AND USAGE THEREOF” (Peptilogics, Inc., priority 2021, published 2023)
